In the RepoRT retention time repository one finds LC retention time data, which are given here for 74 compounds.

A short description of this data set: Waters ACQUITY UPLC BEH C18, 100 × 2.1 mm, 1.7 µm, 40 °C, 0.3 to 0.4 mL/min, estimated dead time 0.63 min; A: water + 0.1% formic acid; B: methanol + 0.1% formic acid; gradient (min/%B) 0/0.5 0.1/0.5 10/80 10.1/99.5 12/99.5. The settings on record: stereoisomer not certain.
For the compound `COC(=O)C1C2CC3c4[nH]c5cc(OC)ccc5c4CCN3CC2CC(OC(=O)c2cc(OC)c(OC)c(OC)c2)C1OC` (centres undefined), the LC retention time is 6.12 min.

With `COc1cc2c(c(OC)c1OC)-c1ccc(OC)c(=O)cc1C(N(C)Cc1ccccc1O)CC2` (centres undefined), the LC retention time was 5.03 min.

For `CCCCCC=CCC=CCCCCCCCC(=O)OCC(O)COP(=O)([O-])OCC[N+](C)(C)C` (centres undefined), the LC retention time is 9.31 min.

`CC1OC(OCC2OC(Oc3cc(O)c4c(c3)OC(c3ccc(O)cc3)CC4=O)C(O)C(O)C2O)C(O)C(O)C1O` (centres undefined): the LC retention time was 4.28 min.

Regarding `CC1OC(OC2C(OC3CCC4(C)C(=CCC5C4CCC4(C)C5CC5OC6(CCC(COC(=O)CC(C)(O)CC(=O)O)CO6)C(C)C54)C3)OC(CO)C(O)C2O)C(O)C(O)C1O` (centres undefined), the LC retention time was 7.38 min.

`O=C(O)CC(=O)OCC1OC(Oc2cc(O)c3c(=O)cc(-c4ccc(O)c(O)c4)oc3c2)C(O)C(O)C1O` (centres undefined): the LC retention time was 4.59 min.

For the compound `c1ccc2c(c1)CN1CCCC1=N2`, the LC retention time is 2.8 min.

Consider `CSCC(NC(=O)CCC(NCC1(O)OCC(O)C(O)C1O)C(=O)O)C(=O)O` (centres undefined), for which the LC retention time was 2.12 min.

For the compound `O=C(O)C1OC(OC2C(Oc3cc(O)c4c(=O)cc(-c5ccc(O)c(O)c5)oc4c3)OC(C(=O)O)C(O)C2O)C(O)C(O)C1O` (centres undefined), the LC retention time is 4 min.

Take `CC1OC(OC2C(Oc3cc(O)c4c(c3)OC(c3ccc(O)c(O)c3)CC4=O)OC(CO)C(O)C2O)C(O)C(O)C1O` (centres undefined): the LC retention time is 4.04 min.

`COc1cc(O)c2c(c1)OC(c1ccc(O)cc1)CC2=O` (centres undefined): the LC retention time was 7.42 min.

For the compound `CC1OC(OCC2OC(Oc3cc4c(O)cc(O)cc4[o+]c3-c3ccc(O)c(O)c3)C(O)C(O)C2O)C(O)C(O)C1O` (centres undefined), the LC retention time was 2.94 min.

For `COc1cc(C=CC(=O)OCC2OC(OC3C(c4c(O)cc5oc(-c6ccc(O)c(O)c6)cc(=O)c5c4O)OC(CO)C(O)C3O)C(O)C(O)C2O)ccc1O` (centres undefined), the LC retention time is 3.87 min.

Turning to `CC1(C)CCC2(C(=O)O)CCC3(C)C(=CCC4C5(C)CC(O)C(O)C(C)(C(=O)OC6OC(COC(=O)CC(=O)O)C(O)C(O)C6O)C5CCC43C)C2C1` (centres undefined), the LC retention time is 7.45 min.

Consider `CCCCCC=CC=CC(=O)CCCCCCCC(=O)O`, for which the LC retention time is 10.2 min.

As for `C=C1CC23CC4C5C6(C)CC(O)CC57C(C2C(O)C1C(O)C37)N4C6` (centres undefined), the LC retention time is 3.07 min.

For the compound `COC(=O)C1(O)CC23CCCN4CCC5(c6ccc7c(c6NC15CC2)OCO7)C43` (centres undefined), the LC retention time was 3.61 min.

As to `O=C1CC(c2ccccc2)Oc2ccc(O)cc21` (centres undefined), the LC retention time is 7.17 min.

Turning to `CC1CCC2C(C)C3C(CC4C5CC=C6CC(O)CCC6(C)C5CCC43C)N2C1` (centres undefined), the LC retention time was 5.99 min.

With `C=CCS(=O)CC(NCC1(O)OCC(O)C(O)C1O)C(=O)O` (centres undefined), the LC retention time was 1.66 min.

Consider `OCC=Cc1ccc(O)cc1`, for which the LC retention time was 3.76 min.

Consider `COc1cc(-c2[o+]c3cc(O)cc(O)c3cc2OC2OC(CO)C(O)C(O)C2O)ccc1O` (centres undefined), for which the LC retention time is 3.15 min.

`COc1cc2ccc(=O)oc2c(OC)c1O`: the LC retention time was 4.28 min.

Consider `NC(Cc1c[nH]c2ccccc12)C(=O)O` (centres undefined), for which the LC retention time was 2.8 min.

As for `CS(=O)CCCCN=C=S` (centres undefined), the LC retention time is 3.69 min.

As to `CC1OC(OC2C(O)C(CO)OC(Oc3c(-c4ccc(O)cc4)oc4cc(O)cc(O)c4c3=O)C2O)C(O)C(O)C1O` (centres undefined), the LC retention time was 4.15 min.

Turning to `CC(C)=CCc1cc(C2COc3cc(O)c(CC=C(C)C)c(O)c3C2=O)ccc1O` (centres undefined), the LC retention time is 9.45 min.

Regarding `CC1OC(OC2C(CO)OC(OC3CCC4(C)C(=CC(O)C5C4CCC4(C)C5CC5OC6(CCC(C)(COC7OC(CO)C(O)C(O)C7O)O6)C(C)C54)C3)C(OC3OC(C)C(O)C(O)C3O)C2O)C(O)C(O)C1O` (centres undefined), the LC retention time is 4.5 min.

Consider `CCCCCCCCCCCCCCCC(=O)OCC(O)COP(=O)(O)OCCNC1OC(CO)C(O)C(O)C1O` (centres undefined), for which the LC retention time was 9.72 min.

With `O=C(O)CCCCCCCC(=O)O`, the LC retention time was 4.78 min.

Take `COc1cc(-c2cc(=O)c3c(O)c(C4OC(CO)C(O)C(O)C4O)c(OC)cc3o2)ccc1O` (centres undefined): the LC retention time is 4.21 min.

Take `O=C(O)C(Cc1ccccc1)NCC1(O)OC(CO)C(O)C1O` (centres undefined): the LC retention time is 2.33 min.

As to `CCC1C2CCN3CCC4(C(=C2C(=O)OC)Nc2ccccc24)C13` (centres undefined), the LC retention time is 4.92 min.

For the compound `CCC1CN2CCC3(C(=O)Nc4ccccc43)C2CC1C(=COC)C(=O)OC` (centres undefined), the LC retention time was 4.9 min.

As to `COC(=O)C1CC23CCCN4CCC5(c6ccccc6NC15C2C)C43` (centres undefined), the LC retention time is 4.24 min.

On to `CCCCCCCCC=CCCCCCCCC(=O)OCC(O)COP(=O)(O)OCCN` (centres undefined), for which the LC retention time was 10.2 min.

As for `CC1C(=O)OC2C(O)C34C5OC(=O)C3(OC3OC(=O)C(O)C34C(C(C)(C)C)C5O)C12O` (centres undefined), the LC retention time is 4.33 min.

Take `COc1cc(CC(COC2OC(CO)C(O)C(O)C2O)C(COC2OC(CO)C(O)C(O)C2O)Cc2ccc(O)c(OC)c2)ccc1O` (centres undefined): the LC retention time was 3.67 min.

For the compound `O=C(O)CCC(NCC1(O)OCC(O)C(O)C1O)C(=O)NC(Cc1ccccc1)C(=O)O` (centres undefined), the LC retention time is 3.16 min.

For the compound `CCC(C)C(=O)OC1C(O)C2C(CN3CC(C)CCC3C2(C)O)C2CC34OC5(O)C(OC(=O)C(C)(O)C(C)O)CCC3(C)C5CC(O)C4C21O` (centres undefined), the LC retention time is 4.65 min.

For `C=C1CC(=CC)C(=O)OC2CCN3CC=C(COC(=O)C1(C)O)C23` (centres undefined), the LC retention time is 3.45 min.

With `COC(=O)C1=COC(OC2OC(CO)C(O)C(O)C2O)C2C1CC(O)C2C` (centres undefined), the LC retention time was 3.36 min.

As to `CC(C)=CCc1cc(CCc2cc(O)c(CC=C(C)C)c(O)c2)ccc1O`, the LC retention time was 9.01 min.

Consider `Cc1cc2[nH]c(=O)c(=O)n(CC(O)C(O)C(O)CO)c2cc1C` (centres undefined), for which the LC retention time was 3.3 min.

With `COc1ccc2c(c1O)-c1c(OC)c(OC)cc3c1C(C2)N(C)CC3` (centres undefined), the LC retention time was 3.92 min.

In the case of `O=C1CC(c2ccc(OC3OC(CO)C(O)C(O)C3O)cc2)Oc2cc(O)ccc21` (centres undefined), the LC retention time was 4.08 min.

On to `CCC(C)C(N)C(=O)NC(CO)C(=O)O` (centres undefined), for which the LC retention time was 1.8 min.

Take `CC1OC(OC2C(Oc3cc(O)c4c(=O)cc(-c5ccc(O)cc5)oc4c3)OC(CO)C(O)C2O)C(O)C(O)C1O` (centres undefined): the LC retention time is 4.34 min.

With `COc1cc(O)c(CC=C(C)C)c(O)c1C(=O)C=Cc1ccc(O)cc1`, the LC retention time is 9.06 min.

For `COc1cc(C=CC(=O)NCCc2ccc(O)cc2)ccc1O`, the LC retention time is 5.13 min.

Regarding `CCCCCCCCC1OC1CCCCCCCC(=O)O` (centres undefined), the LC retention time is 10.3 min.

Take `COc1c(CC=C(C)C)c(O)cc2oc(-c3ccc(O)cc3O)cc12`: the LC retention time is 8.35 min.

Consider `CC(C)C(N)C(=O)NC(Cc1ccccc1)C(=O)O` (centres undefined), for which the LC retention time is 3.23 min.

`COc1ccc2cc1Oc1ccc(cc1)CC1c3cc(c(OC)cc3CCN1C)Oc1c(OC)c(OC)c(OC)c3c1C(C2)N(C)CC3` (centres undefined): the LC retention time is 4.41 min.

For `COc1cc2c(cc1OC)-c1c(C)c3ccc(OC)c(OC)c3c[n+]1CC2`, the LC retention time is 5.19 min.

Consider `COc1cc(C=CC=O)ccc1O`, for which the LC retention time was 4.76 min.

On to `C[N+]1([O-])CCCC1c1cccnc1` (centres undefined), for which the LC retention time was 1.82 min.

Regarding `O=C(C=Cc1ccc(O)c(O)c1)OC1CC(O)(C(=O)O)CC(OC(=O)C=Cc2ccc(O)c(O)c2)C1O` (centres undefined), the LC retention time is 4.6 min.

Take `COc1cc(C=CC(=O)NCCCCNC(=O)C=Cc2ccc(O)c(OC)c2)ccc1O`: the LC retention time was 5.19 min.

`CC1OC(OC2C(OC3CCC4(C)C(CCC5(C)C4CC=C4C6CC(C)(C)CCC6(C(=O)O)CCC45C)C3(C)CO)OCC(O)C2O)C(O)C(O)C1O` (centres undefined): the LC retention time is 7.96 min.

For `O=c1cc(-c2ccc(O)cc2)oc2cc(OC3OC(CO)C(O)C(O)C3OC3OCC(O)(CO)C3O)cc(O)c12` (centres undefined), the LC retention time is 4.71 min.

In the case of `CC=CS(=O)CC(NC=C1OCC(O)C(O)C1O)C(=O)O` (centres undefined), the LC retention time was 1.86 min.

Turning to `CC1(C)CCC2(C(=O)OC3OC(CO)C(O)C(O)C3O)CCC3(C)C(=CCC4C5(C)CCC(OC6OC(C(=O)O)C(OC7OC(CO)C(O)C7O)C(O)C6O)C(C)(C)C5CCC43C)C2C1` (centres undefined), the LC retention time is 6.39 min.

As to `O=C(O)CC(O)(CC(=O)O)C(=O)O`, the LC retention time was 1.57 min.

For the compound `CC=C1CN2C3CC1C1COC(c4c3[nH]c3cc(OC)ccc43)C12` (centres undefined), the LC retention time is 4.42 min.

With `O=C(O)CCC(NC(=O)Cc1c[nH]c2ccccc12)C(=O)O` (centres undefined), the LC retention time was 4.12 min.

On to `CC1CCC2(NC1)OC1CC3C4CC=C5CC(OC6OC(CO)C(O)C(OC7OC(CO)C(O)C(O)C7O)C6OC6OC(C)C(O)C(O)C6O)CCC5(C)C4CCC3(C)C1C2C` (centres undefined), for which the LC retention time was 4.62 min.

In the case of `O=c1c(OC2OC(CO)C(O)C(O)C2OC2OC(CO)C(O)C(O)C2O)c(-c2ccc(O)cc2)oc2cc(O)cc(O)c12` (centres undefined), the LC retention time was 3.8 min.

As for `CC1(C)CCC2(C(=O)O)CCC3(C)C(=CCC4C5(C)CCC(OC6OC(C(=O)O)C(O)C(OC7OC(CO)C(O)C(O)C7O)C6O)C(C)(CO)C5CCC43C)C2C1` (centres undefined), the LC retention time is 7.55 min.

Regarding `O=c1cc2oc(-c3ccc(O)cc3)ccc-2c(O)c1`, the LC retention time was 3.87 min.

Turning to `CCCCCC(=O)OC1C(OC2(CO)OC(CO)C(OC(C)=O)C2O)OC(CO)C(OC(=O)CCCC)C1OC(=O)CCCCC` (centres undefined), the LC retention time is 9.49 min.

As to `COC(=O)C1=COC(OC2OC(CO)C(O)C(O)C2O)C2C(CO)=CCC12` (centres undefined), the LC retention time is 3.42 min.

For the compound `CCCCCC=CCC=CCCCCCCCC(=O)OCC(O)COP(=O)(O)OCCN` (centres undefined), the LC retention time was 9.24 min.

`CC(=O)OC1CC(C)CNC12OC1CC3C4CCC5CC(OC6OC(CO)C(OC7OC(CO)C(O)C(OC8OCC(O)C(O)C8O)C7OC7OC(CO)C(O)C(O)C7O)C(O)C6O)CCC5(C)C4CCC3(C)C1C2C` (centres undefined): the LC retention time is 4.78 min.
